Assay results taken from patent US20240391942A1 (priority 2021, published 2024).

Legend:
Assay in all cases: cells
Format in all cases: cell-based
[1] = test system: NCI-H1299; conditions: Homo sapiens, NCI-H1299, 72 h
[2] = test system: HCC827; conditions: Homo sapiens, HCC827, 72 h
[3] = test system: A549; conditions: Homo sapiens, A549, 72 h
[4] = test system: A-375; conditions: Homo sapiens, A-375, 72 h
[5] = test system: U-937; conditions: Homo sapiens, U-937, 72 h
[6] = test system: A-431; conditions: Homo sapiens, A-431, 72 h
[7] = test system: SK-OV-3; conditions: Homo sapiens, SK-OV-3, 72 h
[8] = test system: SK-HEP-1; conditions: Homo sapiens, SK-HEP1, 72 h

`CN[C@@H]1C[C@H]2O[C@@](C)([C@@H]1OC)n1c3ccccc3c3c4c(c5c6ccccc6n2c5c31)C(=O)NC4` [Staurosporine] gave an IC50 [1] of 9.2 nM, an IC50 [2] of 16.1 nM and an IC50 [3] of 13.1 nM. It also gave an IC50 [4] of 18 nM, an IC50 [5] of 13.9 nM and an IC50 [6] of 21.1 nM. For the same compound, the IC50 [7] was 28 nM and the IC50 [8] was 16.9 nM.
